Measured values: patent US11214578B2, “Urea/carbamates FAAH MAGL or dual FAAH/MAGL inhibitors and uses thereof” (Northeastern University, priority 2014, dated 2022)

Tests used:
Type in all cases: biochemical
ΔTM rat FAAH = target: T1, ΔTM rat FAAH (Rattus norvegicus, UniProt P97612); assay: Fluorescent assay protocol for ΔTM rat FAAH (AAMCA substrate); conditions: 15 min preincubation, read-out: IC50 rFAAH
T1 construct: Preparation of Transmembrane Domain-Deleted Rat FAAH (ΔTM rFAAH); made in house; host or cells: E. coli
T1 sequence (P97612 30-579 limits assumed): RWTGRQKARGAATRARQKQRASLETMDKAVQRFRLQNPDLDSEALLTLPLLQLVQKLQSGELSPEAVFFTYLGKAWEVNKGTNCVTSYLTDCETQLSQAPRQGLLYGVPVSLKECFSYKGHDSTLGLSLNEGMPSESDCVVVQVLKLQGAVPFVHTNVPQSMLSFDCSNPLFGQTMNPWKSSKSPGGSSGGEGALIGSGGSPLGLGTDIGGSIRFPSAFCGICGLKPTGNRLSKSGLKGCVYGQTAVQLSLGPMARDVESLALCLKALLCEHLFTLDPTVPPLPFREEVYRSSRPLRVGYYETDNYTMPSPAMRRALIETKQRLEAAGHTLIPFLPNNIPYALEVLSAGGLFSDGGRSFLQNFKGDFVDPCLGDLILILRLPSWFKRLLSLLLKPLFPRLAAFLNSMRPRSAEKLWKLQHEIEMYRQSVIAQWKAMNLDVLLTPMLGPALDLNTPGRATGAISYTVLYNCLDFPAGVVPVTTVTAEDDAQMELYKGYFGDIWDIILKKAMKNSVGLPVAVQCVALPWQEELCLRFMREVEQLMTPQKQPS
Method in brief: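 ΔTM rat FAAH (15 μg) was pre-incubated 15 min at 25° C with compound (screening at 1, 10 and 100 μM), then reacted with the fluorigenic substrate AAMCA. Percent inhibition came from fluorescence at 3 h (linear kinetics) relative to no-inhibitor controls, in triplicate.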

Human FAAH (MBPΔTMhFAAH) = target: T2, Human FAAH (MBPΔTMhFAAH) (Homo sapiens, UniProt O00519); assay: Fluorescent assay protocol for hFAAH; conditions: human FAAH (MBP fusion, ΔTM), procedure as for rFAAH
T2 construct: made in house; host or cells: E. coli (pMALcE4 vector)
T2 sequence (O00519 30-579 limits assumed): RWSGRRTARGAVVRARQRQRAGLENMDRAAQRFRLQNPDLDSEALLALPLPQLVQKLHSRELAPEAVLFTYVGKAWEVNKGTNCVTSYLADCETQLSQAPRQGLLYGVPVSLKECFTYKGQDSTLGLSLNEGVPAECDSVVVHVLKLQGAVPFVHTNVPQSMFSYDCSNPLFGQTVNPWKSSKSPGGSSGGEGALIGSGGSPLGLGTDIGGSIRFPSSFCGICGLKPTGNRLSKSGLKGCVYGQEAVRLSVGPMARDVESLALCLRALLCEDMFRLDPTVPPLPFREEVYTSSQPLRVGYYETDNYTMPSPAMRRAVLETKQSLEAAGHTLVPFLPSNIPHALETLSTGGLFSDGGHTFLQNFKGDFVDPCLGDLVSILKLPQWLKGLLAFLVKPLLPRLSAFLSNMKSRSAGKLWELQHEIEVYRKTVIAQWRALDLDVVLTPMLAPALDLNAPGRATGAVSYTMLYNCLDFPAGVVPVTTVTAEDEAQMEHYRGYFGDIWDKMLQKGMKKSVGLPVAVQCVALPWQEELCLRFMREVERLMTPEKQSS
Method in brief: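 MBP-fused ΔTM human FAAH from E. coli, pre-incubated 15 min at 25 °C with compound in 50 mM HEPES, 1 mM EDTA, 0.1% BSA, pH 7.4 (DMSO below 8%). Substrate AAMCA 20 μM (2×Km); fluorescence (ex 360/em 460) at 3 h gave % inhibition vs uninhibited control, triplicate, IC50 fitted.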

Human MAGL (hMAGL) = target: T3, Human MAGL (hMAGL) (Homo sapiens, UniProt Q99685); assay: Fluorescent assay protocol for hMAGL (AHMMCE substrate); conditions: recombinant human MAGL, AHMMCE substrate, 15 min preincubation; read-out: IC50 hMAGL
T3 construct: hexahistidine; made in house; host or cells: E. coli
T3 sequence (Q99685 1-303): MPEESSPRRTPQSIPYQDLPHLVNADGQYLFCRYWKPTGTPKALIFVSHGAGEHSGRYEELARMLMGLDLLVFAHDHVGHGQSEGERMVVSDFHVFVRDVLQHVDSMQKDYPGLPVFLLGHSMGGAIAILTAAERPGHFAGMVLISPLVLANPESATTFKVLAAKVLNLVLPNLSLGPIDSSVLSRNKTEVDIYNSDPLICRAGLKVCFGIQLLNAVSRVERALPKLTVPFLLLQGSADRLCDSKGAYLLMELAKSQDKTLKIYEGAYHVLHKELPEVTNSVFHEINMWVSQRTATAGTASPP
Method in brief: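 Hydrolysis of AHMMCE by human MAGL was monitored at 25°C for 120 min, with fluorescence at 360/460 nm recorded every 15 min and converted to 4-methylcoumarin using external standards. IC50 values were derived from triplicate wells at each inhibitor concentration.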

Rat MAGL (rMAGL) = target: T4, Rat MAGL (rMAGL) (Rattus norvegicus, UniProt Q8R431); assay: Fluorescent assay protocol for rMAGL; conditions: recombinant rat MAGL, procedure as for hMAGL; read-out: IC50 rMAGL
T4 construct: made in house; host or cells: E. coli
T4 sequence (Q8R431 1-303): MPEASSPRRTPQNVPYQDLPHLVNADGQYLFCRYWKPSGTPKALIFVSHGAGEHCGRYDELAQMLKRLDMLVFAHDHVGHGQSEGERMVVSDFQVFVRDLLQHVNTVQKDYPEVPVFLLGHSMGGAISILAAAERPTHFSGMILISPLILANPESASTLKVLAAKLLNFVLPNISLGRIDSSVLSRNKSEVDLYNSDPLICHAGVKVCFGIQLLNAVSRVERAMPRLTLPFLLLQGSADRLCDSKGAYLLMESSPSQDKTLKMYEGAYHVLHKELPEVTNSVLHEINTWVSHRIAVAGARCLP
Method in brief: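 Rat MAGL run as for the human enzyme: AHMMCE substrate hydrolysis to fluorescent coumarin followed at 25° C. for 120 min, read every 15 min at 360/460 nm.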

Row | SMILES | IC50 (ΔTM rat FAAH) | IC50 (Human FAAH (MBPΔTMhFAAH)) | IC50 (Human MAGL (hMAGL)) | IC50 (Rat MAGL (rMAGL))
1 | N#Cc1ccc(F)c(OC(=O)N2CCC(OC(c3ccccc3)c3ccccc3)CC2)c1 [Example 56, 5-cyano-2-fluorophenyl 4-(benzhydryloxy)piperidine-1-carboxylate] | 110 to 1000 nM | 110 to 1000 nM | 110 to 1000 nM | 110 to 1000 nM
2 | O=C(Oc1cccc(Cl)n1)N1CCC(OC(c2ccccc2)c2ccccc2)CC1 [Example 57, 6-chloropyridin-2-yl 4-(benzhydryloxy)piperidine-1-carboxylate] | > 1000 nM | > 1000 nM | 10 to 100 nM | 10 to 100 nM
3 | N#Cc1ccc(F)c(OC(=O)N2CCC(S(=O)(=O)c3ccc(Br)cc3)CC2)c1 [Example 60, 5-Cyano-2-fluorophenyl 4-(4-bromophenylsulfonyl)piperidine-1-carboxylate] | 110 to 1000 nM | 10 to 100 nM | 10 to 100 nM | 10 to 100 nM
4 | Cc1ccc(C#N)cc1OC(=O)N1CCC(S(=O)(=O)c2ccc(Br)cc2)CC1 [Example 61, 5-Cyano-2-methylphenyl 4-(4-bromophenylsulfonyl)piperidine-1-carboxylate] | 10 to 100 nM | 10 to 100 nM | > 1000 nM | 10 to 100 nM
5 | COc1ccc(C#N)cc1OC(=O)N1CCC(S(=O)(=O)c2ccc(Br)cc2)CC1 [Example 62, 5-Cyano-2-methoxyyphenyl 4-(4-bromophenylsulfonyl)piperidine-1-carboxylate] | 10 to 100 nM | 10 to 100 nM | > 1000 nM | 10 to 100 nM
6 | O=C(Oc1c(F)cccc1F)N1CCC(S(=O)(=O)c2ccc(Br)cc2)CC1 [Example 63, 2,6-Difluorophenyl 4-(4-bromophenylsulfonyl)piperidine-1-carboxylate] | > 1000 nM | > 1000 nM | 110 to 1000 nM | 110 to 1000 nM
7 | Cc1ccc(S(=O)(=O)N2CCN(C(=O)Oc3c(F)cccc3F)CC2)cc1 [Example 65, 2,6-difluorophenyl 4-tosylpiperazine-1-carboxylate] | > 1000 nM | > 1000 nM | 110 to 1000 nM | 110 to 1000 nM
8 | Cc1ccc(S(=O)(=O)N2CCN(C(=O)Oc3ccc(-c4ccc(F)cc4)cc3O)CC2)cc1 [Example 66, 4′-fluoro-3-hydroxy-[1,1′-biphenyl]-4-yl 4-tosylpiperazine-1-carboxylate] | > 1000 nM | > 1000 nM | 10 to 100 nM | 10 to 100 nM
9 | O=C(Oc1cccc(N2CCS(=O)(=O)CC2)c1)N1CCN(Cc2cccc(Oc3ccccc3)c2)CC1 [Example 71, 3-(1,1-dioxidothiomorpholino)phenyl 4-(3-phenoxybenzyl)piperazine-1-carboxylate] | 110 to 1000 nM | 110 to 1000 nM | 10 to 100 nM | 10 to 100 nM
10 | O=C(Oc1cccc(N2CCS(=O)(=O)CC2)c1)N1CCN(Cc2ccc3ccccc3n2)CC1 [Example 72, 3-(1,1-dioxidothiomorpholino)phenyl 4-(quinolin-2-ylmethyl)piperazine-1-carboxylate] | 110 to 1000 nM | 110 to 1000 nM | 110 to 1000 nM | 110 to 1000 nM
11 | N#Cc1cccc(OC(=O)N2CC(OCc3ccc(Cl)cc3)C2)c1 [Example 74, 3-Cyanophenyl 3-(4-chlorobenzyloxy)azetidine-1-carboxylate] | 10 to 100 nM | 10 to 100 nM | 110 to 1000 nM | > 1000 nM
12 | O=C(Oc1cccc(C(F)(F)F)c1)N1CC(OCc2ccc(Cl)cc2)C1 [Example 75, 3-(Trifluoromethyl)phenyl 3-(4-chlorobenzyloxy)azetidine-1-carboxylate] | 10 to 100 nM | 10 to 100 nM | 110 to 1000 nM | > 1000 nM
13 | O=C(Oc1cccc(Br)c1)N1CC(OCc2ccc(Cl)cc2)C1 [Example 76, 3-Bromophenyl 3-(4-chlorobenzyloxy)azetidine-1-carboxylate] | 10 to 100 nM | 10 to 100 nM | 110 to 1000 nM | 110 to 1000 nM
14 | NC(=O)c1cccc(OC(=O)N2CC(OCc3ccc(Cl)cc3)C2)c1 [Example 77, 3-Carbamoylphenyl 3-(4-chlorobenzyloxy)azetidine-1-carboxylate] | 10 to 100 nM | 10 to 100 nM | 110 to 1000 nM | 110 to 1000 nM

Continued, values first:

Row | IC50 (ΔTM rat FAAH) | IC50 (Human FAAH (MBPΔTMhFAAH)) | IC50 (Human MAGL (hMAGL)) | IC50 (Rat MAGL (rMAGL)) | SMILES
15 | 110 to 1000 nM | 10 to 100 nM | 10 to 100 nM | 10 to 100 nM | N#Cc1cccc(OC(=O)N2CCC(S(=O)(=O)c3ccc(Br)cc3)CC2)c1 [Example 59, 3-Cyanophenyl 4-(4-bromophenylsulfonyl)piperidine-1-carboxylate]
16 | > 1000 nM | > 1000 nM | 10 to 100 nM | 10 to 100 nM | Cc1ccc(S(=O)(=O)N2CCN(C(=O)Oc3ccc(Br)cc3)CC2)cc1 [Example 64, 4-bromophenyl 4-tosylpiperazine-1-carboxylate]
17 | > 1000 nM | > 1000 nM | 10 to 100 nM | 10 to 100 nM | O=C(Nc1cccc(N2CCS(=O)(=O)CC2)c1)N1CCN(c2ccccc2)CC1 [Example 67, N-(3-(1,1-dioxidothiomorpholino)phenyl)-4-phenylpiperazine-1-carboxamide]
18 | > 1000 nM | > 1000 nM | 110 to 1000 nM | 110 to 1000 nM | O=C(Nc1cccc(N2CCS(=O)(=O)CC2)c1)N1CCC(c2ccccc2)CC1 [Example 68, N-(3-(1,1-dioxidothiomorpholino)phenyl)-4-phenylpiperidine-1-carboxamide]
19 | 110 to 1000 nM | 110 to 1000 nM | 10 to 100 nM | 10 to 100 nM | O=C(Oc1cccc(N2CCS(=O)(=O)CC2)c1)N1CCN(c2ccccc2)CC1 [Example 69, 3-(1,1-dioxidothiomorpholino)phenyl 4-phenylpiperazine-1-carboxylate]
20 | 110 to 1000 nM | 110 to 1000 nM | 110 to 1000 nM | 110 to 1000 nM | O=C(Oc1cccc(N2CCS(=O)(=O)CC2)c1)N1CCC(c2ccccc2)CC1 [Example 70, 3-(1,1-Dioxothiomorpholin-4-yl)phenyl 4-phenylpiperidine-1-carboxylate]
21 | > 1000 nM | > 1000 nM | 10 to 100 nM | 10 to 100 nM | CC1CN(c2ccccc2)CCN1C(=O)Oc1cccc(N2CCS(=O)(=O)CC2)c1 (stereo not drawn) [Example 73, 3-(1,1-dioxidothiomorpholino)phenyl 2-methyl-4-phenylpiperazine-1-carboxylate]
